Source: publication PMC9150124, “Design of a Potent, Selective, and Brain-Penetrant Inhibitor of Wnt-Deactivating Enzyme Notum by Optimization of a Crystallographic Fragment Hit” (Journal of Medicinal Chemistry, 2022)
“And” between values parts separate entries of the source, which are not always exact repeats. Identical values can stand only once. Blank lines part the entries; values can stand above or below the compound they belong to.

Legend:
[1] = target: T1, human Notum (81–451 Cys330Ser) (Homo sapiens, UniProt Q6P988, C330S); experiment: Notum OPTS biochemical assay; details: for IC50: OPTS substrate, mean, read-out: Notum IC50
T1 construct: human Notum (81–451 Cys330Ser) as the enzyme; made in house
T1 sequence (Q6P988 81-451 C330S): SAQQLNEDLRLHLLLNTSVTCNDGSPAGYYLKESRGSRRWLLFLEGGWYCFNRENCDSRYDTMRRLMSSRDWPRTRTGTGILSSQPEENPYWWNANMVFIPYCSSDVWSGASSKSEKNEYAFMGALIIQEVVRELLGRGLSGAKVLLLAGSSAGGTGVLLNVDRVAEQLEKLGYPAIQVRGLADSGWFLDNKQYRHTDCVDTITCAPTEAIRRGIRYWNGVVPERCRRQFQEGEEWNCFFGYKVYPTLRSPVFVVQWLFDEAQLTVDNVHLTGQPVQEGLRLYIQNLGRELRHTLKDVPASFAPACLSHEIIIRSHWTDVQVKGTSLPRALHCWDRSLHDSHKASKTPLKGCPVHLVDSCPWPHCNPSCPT
Text: The optimization of 6 to deliver this profile was directed at three principle areas of these hit structures: (1) aryl ring 7 (Table 1); (2) the C4 substituent on triazole 8 (Table 2); and (3) further fine-tuning of the triazole 9 (Table 3). […] This assay was used to establish SAR and to identify preferred leads for additional studies.
Methods have been described in detail elsewhere.[23]−[26] Representative concentration–response curves are provided in the Supporting Information.

[2] = target: T2, Notum (Homo sapiens, UniProt Q6P988); experiment: ABPP-TMT (FP-biotin) proteomic analysis in SW620 cells
T2 sequence (Q6P988 20-496): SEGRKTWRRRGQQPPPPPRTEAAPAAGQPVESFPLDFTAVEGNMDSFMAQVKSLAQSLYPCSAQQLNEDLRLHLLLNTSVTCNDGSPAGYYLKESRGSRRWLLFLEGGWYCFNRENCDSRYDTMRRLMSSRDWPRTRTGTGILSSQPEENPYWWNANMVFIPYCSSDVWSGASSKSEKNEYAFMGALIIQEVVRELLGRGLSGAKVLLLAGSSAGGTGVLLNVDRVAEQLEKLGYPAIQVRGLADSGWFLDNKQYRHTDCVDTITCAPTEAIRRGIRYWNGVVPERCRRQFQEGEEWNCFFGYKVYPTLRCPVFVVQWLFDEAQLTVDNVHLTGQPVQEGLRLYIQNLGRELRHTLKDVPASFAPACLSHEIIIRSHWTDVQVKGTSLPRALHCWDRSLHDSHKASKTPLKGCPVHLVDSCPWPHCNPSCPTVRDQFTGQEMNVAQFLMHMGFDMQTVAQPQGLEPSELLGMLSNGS

[3] = in vitro; details: pH 7.4
Method: G. Plasma protein binding (PPB):
Method: rapid equilibrium dialysis.
Test System Mouse Plasma (K2EDTA)
Test compound concentration 10 µM (mouse) or 2 µM (rat)

SMILES: OCc1cn(-c2ccccc2)nn1 [7a, (1-Phenyl-1H-1,2,3-triazol-4-yl)methanol]
IC50 [1]: 110 ± 30 µM

SMILES: Cc1cccc(-n2cc(CO)nn2)c1 [7e, ((3-Methylphenyl)-1H-1,2,3-triazol-4-yl)methanol]
% I ([1]; @10 μM): b 40–50% I@10 μM.
IC50 [1]: ~10 µM and 10 µM

SMILES: OCCCc1cn(-c2ccc(Cl)c(C(F)(F)F)c2Cl)nn1 [8c, 3-(1-(2,4-Dichloro-3-(trifluoromethyl)phenyl)-1H-1,2,3-triazol-4-yl)propan-1-ol]
IC50 [1]: 1.8 ± 0.5 µM

SMILES: OCCc1cn(-c2ccc(Cl)c(C(F)(F)F)c2Cl)nn1 [8b, 2-(1-(2,4-Dichloro-3-(trifluoromethyl)phenyl)-1H-1,2,3-triazol-4-yl)ethan-1-ol]
IC50 [1]: 5.7 ± 2.5 µM

SMILES: Cc1ccc(-n2cc(CO)nn2)cc1 [7k, ((4-Methylphenyl)-1H-1,2,3-triazol-4-yl)methanol]
IC50 [1]: 13 ± 2 µM

Further lines, results first:

IC50 [1]: 7.4 ± 1.1 µM
SMILES: OC1(Cc2cn(-c3ccc(Cl)c(C(F)(F)F)c3Cl)nn2)COC1 [8e, 3-((1-(2,4-Dichloro-3-(trifluoromethyl)phenyl)-1H-1,2,3-triazol-4-yl)methyl)oxetan-3-ol]

IC50 [1]: 0.14 ± 0.02 µM
SMILES: FC(F)(F)c1c(Cl)ccc(-n2cnnn2)c1Cl [9b, 1-(2,4-Dichloro-3-(trifluoromethyl)phenyl)-1H-tetrazole]

NOTUM intensity normalised to DMSO ([2]; SW620 conditioned media, 1e-8 M): 1.677
NOTUM intensity normalised to DMSO ([2]; SW620 conditioned media, 3e-8 M): 1.111
NOTUM intensity normalised to DMSO ([2]; SW620 conditioned media, 1e-7 M): 1.2088
NOTUM intensity normalised to DMSO ([2]; SW620 conditioned media, 3e-7 M): 0.5634
NOTUM intensity normalised to DMSO ([2]; SW620 conditioned media, 1e-6 M): 0.3108
NOTUM intensity normalised to DMSO ([2]; SW620 conditioned media, 3e-6 M): 0.1718
NOTUM intensity normalised to DMSO ([2]; SW620 conditioned media, 1e-5 M): 0.112
NOTUM intensity normalised to DMSO ([2]; SW620 lysate, 1e-8 M): 0.811
NOTUM intensity normalised to DMSO ([2]; SW620 lysate, 3e-8 M): 0.6714
NOTUM intensity normalised to DMSO ([2]; SW620 lysate, 1e-7 M): 0.5739
NOTUM intensity normalised to DMSO ([2]; SW620 lysate, 3e-7 M): 0.495
NOTUM intensity normalised to DMSO ([2]; SW620 lysate, 1e-6 M): 0.3711
NOTUM intensity normalised to DMSO ([2]; SW620 lysate, 3e-6 M): 0.4727
NOTUM intensity normalised to DMSO ([2]; SW620 lysate, 1e-5 M): 0.5374
SMILES: O=C(O)CSc1ncnc2c(C3CC3)c(Cl)sc12 [compound 1, LP-922056, reference compound]

IC50 [1]: 0.2 ± 0.05 µM
SMILES: COCc1cn(-c2ccc(Cl)c(C(F)(F)F)c2Cl)nn1 [8j, 1-(2,4-Dichloro-3-(trifluoromethyl)phenyl)-4-(methoxymethyl)-1H-1,2,3-triazole]

IC50 [1]: 2.3 ± 0.22 µM
SMILES: CNC(=O)c1cn(-c2ccc(Cl)c(C(F)(F)F)c2Cl)nn1 [8h, 1-(2,4-Dichloro-3-(trifluoromethyl)phenyl)-N-methyl-1H-1,2,3-triazole-4-carboxamide]

recovery at 4 h, 2 µM ([3]; SD, rat): 100%
fraction unbound at 4 h, 2 µM ([3]; SD, rat, plasma): 0.0063
recovery at 5 h, 10 µM ([3]; mouse): 103%
Plasma protein binding (PPB), % bound ([3]; mouse, plasma, 5 h, 10 µM): 95.71%
fraction unbound at 5 h, 10 µM ([3]; mouse, plasma): 0.0429
SMILES: CC(=O)CC(c1ccccc1)c1c(O)c2ccccc2oc1=O (centres unmarked) [Warfarin, reference compound]

IC50 [1]: 0.031 ± 0.01 µM
SMILES: O=C(O)c1cn(-c2ccc(Cl)c(C(F)(F)F)c2Cl)nn1 [8f, 1-(2,4-Dichloro-3-(trifluoromethyl)phenyl)-1H-1,2,3-triazole-4-carboxylic Acid]

reduction in potency vs 7y [1]: 12 fold
IC50 [1]: 0.11 ± 0.04 µM
SMILES: Cc1cn(-c2ccc(Cl)c(C(F)(F)F)c2Cl)nn1 [8k, 1-(2,4-Dichloro-3-(trifluoromethyl)phenyl)-4-methyl-1H-1,2,3-triazole]
